Laboratory results published in patent publication US8283009B2, “Use of a material based on a thermoplastic polymer having a high content of antioxidants for packaging dianhydrohexitols” (Roquette Freres, priority 2007, dated 2012).

Assays:
[1] = Analysis for peroxides on the packaged product after storage; type: physicochemical; conditions: packaged in accordance with the invention (PE + carbon black); 50° C.; after 4 months of storage
[2] = Storage stability of isosorbide in sealed packaging sachets at 50° C., pH-metry; type: physicochemical
Source text: 50 g of isosorbide in solid form (flakes) are introduced into a sachet (25 cm×25 cm) constituted of the packaging material to be tested. The sachet is immediately sealed by welding using an impulse heat sealer (model SZ 380 sold by Joisten & Kettenbaum GmbH & Co, Bergisch Gladbach, Germany). The thus sealed sachet is in turn introduced into a second sachet made of aluminum comprising a polyethylene coating, sealed by welding using the same heat sealer in order to ensure leaktightness with respect to the external atmosphere. The samples thus packaged are placed in a ventilated oven, thermostatted at a temperature of 50° C. A control sample is enclosed in a glass flask and stored under the same conditions.
After a given period, the whole of the sample of isosorbide is extracted from the packagings and dissolved to 40% by weight of solids in osmosed water. […]

presence of peroxides (markers of oxidation phenomena, instability) [1]: did not show any presence of peroxides | drop in pH after storage ([2]; packaged in accordance with the invention (PE + carbon black), after 4 months of storage): no drop in pH | pH of the solution ([2]; packaging PE + carbon black (according to the invention), storage 0 day, 40% by weight of solids in osmosed water): pH 7.6 | pH of the solution ([2]; packaging PE + carbon black (according to the invention), storage 1 month, 40% by weight in osmosed water): pH 7.3 | pH of the solution ([2]; packaging PE + carbon black (according to the invention), storage 1.5 month, 40% by weight in osmosed water): pH 7.4 | pH of the solution ([2]; packaging PE + carbon black (according to the invention), storage 2 months, 40% by weight in osmosed water): pH 7.5 | pH of the solution ([2]; packaging PE + carbon black (according to the invention), storage 2 weeks, 40% by weight in osmosed water): pH 7.2 | pH of the solution ([2]; packaging PE + carbon black (according to the invention), storage 2.5 months, 40% by weight in osmosed water): pH 7.5 | pH of the solution ([2]; packaging PE + carbon black (according to the invention), storage 3 months, 40% by weight in osmosed water): pH 7.6 | pH of the solution ([2]; packaging PE + carbon black (according to the invention), storage 4 months, 40% by weight in osmosed water): pH 7.7 | pH of the solution ([2]; packaging Sachet 1 (comp.) branched/linear polyethylene 50%/50%, storage 0 day, 40% by weight in osmosed water): pH 7.6 | pH of the solution ([2]; packaging Sachet 1 (comp.) branched/linear polyethylene 50%/50%, storage 1 month, 40% by weight in osmosed water): pH 7.4 | pH of the solution ([2]; packaging Sachet 1 (comp.) branched/linear polyethylene 50%/50%, storage 1.5 month, 40% by weight in osmosed water): pH 7.4 | pH of the solution ([2]; packaging Sachet 1 (comp.) branched/linear polyethylene 50%/50%, storage 2 weeks, 40% by weight in osmosed water): pH 7.5 | pH of the solution ([2]; packaging Sachet 2 (comp.) branched/linear polyethylene 70%/30%, storage 0 day, 40% by weight in osmosed water): pH 7.6 | pH of the solution ([2]; packaging Sachet 2 (comp.) branched/linear polyethylene 70%/30%, storage 2 weeks, 40% by weight in osmosed water): pH 7.5 | pH of the solution ([2]; packaging Sachet 3 (comp.) 100% of branched polyethylene, storage 0 day, 40% by weight in osmosed water): pH 7.6 | pH of the solution ([2]; packaging Sachet 4 (comp.) 100% of linear polyethylene, storage 0 day, 40% by weight in osmosed water): pH 7.6 | pH of the solution ([2]; packaging Sachet 4 (comp.) 100% of linear polyethylene, storage 2 weeks, 40% by weight in osmosed water): pH 7.2 | odor after storage ([2]; samples not packaged in accordance with the invention, glass 4 months, sachet 1 2 months, sachets 2 and 4 1 month, sachet 3 2 weeks): characteristic odor of formic acid
SMILES: O[C@@H]1CO[C@H]2[C@@H]1OC[C@@H]2O [isosorbide, 1,4:3,6-dianhydrosorbitol]
